{"source": "patent US11690860B2", "about": "“Treatment of HCV infected patients with cirrhosis” (Atea Pharmaceuticals, Inc., priority 2018, dated 2023)", "key": {"[1]": {"tested_on": "HCV GT3 replicons", "assay": "EC95 in replicons containing HCV constructs of clinical isolates, GT3", "format": "cell-based", "settings": "HCV GT3, expressed as equivalents of metabolite 1-7", "procedure": "(§1) For rapidly-replicating viruses such as HCV, maintenance of antiviral activity throughout inter-dose time intervals optimizes efficacy by reducing chances for recrudescent viral replication during inter-dose trough periods. […] In those cohorts receiving 600 mg QD, ˜30% of subjects achieved HCV RNA below the lower limit of quantitation with only seven days of therapy."}, "[2]": {"tested_on": "HCV GT2 replicons", "assay": "EC95 in replicons containing HCV constructs of clinical isolates, GT2", "format": "cell-based", "settings": "HCV GT2, expressed as equivalents of metabolite 1-7", "procedure": "as §1"}, "[3]": {"assay": "Plasma pharmacokinetics of Compound 1 and metabolite 1-7 (LC-MS/MS) in Parts C, D and E", "format": "in vivo, human", "settings": "for AUC Day 1 (AUCinf for Compound 1) / Cmax / half-life / Tmax / AUC SS (AUCinf for Compound 1): n=6; for Cmax / half-life / Tmax: human, in vivo", "procedure": "Doses were administered as the Compound 2 salt base. The free base Compound 1 equivalent is often given in parenthesis.\nPart C was a randomized, double-blind, placebo-controlled MAD study divided into three cohorts. […] The dose escalation only proceeded following satisfactory review of the data.\nHCV-infected patients were treatment-naïve with HCV RNA ≥5 log 10 IU/mL. HCV RNA was quantified using COBAS® AmpliPrep TaqMAN® v2.0 with LLQ of 15 IU/mL. Plasma drug levels were measured using LC-MS/MS. […] Cirrhosis was confirmed by prior liver biopsy or Fibroscan >12.5 kPa. […] Mean ages of enrolled subjects were 44, 39, and 56 years in the non-cirrhotic GT1b 600 mg dose cohort, non-cirrhotic GT3 cohort, and the cirrhotic cohort, respectively.\nPlasma levels of metabolite 1-7 were measured using LC-MS/MS."}, "[4]": {"settings": "Part C, daily dosing for 7 days"}}, "note": "Entries after “also recorded” stand apart in the source; their conditions may differ. Read-outs that look alike come from different tables or passages of the source.", "data": [{"smiles": "CNc1nc(N)nc2c1ncn2[C@@H]1O[C@H](CO[P@@](=O)(N[C@@H](C)C(=O)OC(C)C)Oc2ccccc2)[C@@H](O)[C@@]1(C)F", "note": "[Compound 1, isopropyl((S)-(((2R,3R,4R,5R)-5-(2-amino-6-(methylamino)-9H-purin-9-yl)-4-fluoro-3-hydroxy-4-methyltetrahydrofuran-2-yl)methoxy)(phenoxy)phosphoryl)-L-alaninate]", "values": [{"measurement": "EC95", "setting": "[1]", "value": "~0.018", "unit": "µg/mL"}, {"measurement": "EC95", "setting": "[2]", "value": "~0.012", "unit": "µg/mL"}, {"measurement": "PK in cirrhotic compared with non-cirrhotic subjects", "setting": "[3]; 600 mg QD of Compound 2, Parts C/D vs Part E", "value": "comparable"}, {"measurement": "dose proportionality of plasma exposure (peak and total)", "setting": "[3]; Part C, 150 to 600 mg Compound 2", "value": "slightly more than dose proportional from 150 mg to 300 mg and mostly dose proportional thereafter"}, {"measurement": "AUC Day 1 (AUCinf for Compound 1)", "setting": "[3]; Part C, NC GT1b, 150 mg/d Compound 2 QD", "value": "492 ± 141", "unit": "ng/mLxh"}, {"measurement": "AUC Day 1 (AUCinf for Compound 1)", "setting": "[3]; Part C, NC GT1b, 300 mg/d Compound 2 QD", "value": "1947 ± 1120", "unit": "ng/mLxh"}, {"measurement": "AUC Day 1 (AUCinf for Compound 1)", "setting": "[3]; Part C, NC GT1b, 600 mg/d Compound 2 QD", "value": "3335 ± 1502", "unit": "ng/mLxh"}, {"measurement": "accumulation", "setting": "[3]; [4]", "value": "did not accumulate over time"}, {"measurement": "half-life (in words)", "setting": "[3]; [4]", "value": "short half-life"}, {"measurement": "AUC Day 1 (AUCinf for Compound 1)", "setting": "[3]; Part D, NC GT3, 600 mg/d Compound 2 QD", "value": "3333 ± 1241", "unit": "ng/mLxh"}, {"measurement": "AUC Day 1 (AUCinf for Compound 1)", "setting": "[3]; Part E, Child-Pugh A cirrhotic, 600 mg/d Compound 2 QD", "value": "3323 ± 1467", "unit": "ng/mLxh"}, {"measurement": "absorption", "setting": "[3]; after administration of Compound 2, fasted state", "value": "rapidly and well-absorbed; also recorded: quickly absorbed"}, {"measurement": "estimated fraction absorbed", "setting": "[3]; based on urine recovery", "value": "~50", "unit": "%"}, {"measurement": "Cmax", "setting": "[3]; 150 mg/d, Part C, NC GT1b, 150 mg/d Compound 2 QD, read-out: Cmax Day 1", "value": "573 ± 280", "unit": "ng/mL"}, {"measurement": "half-life", "setting": "[3]; 150 mg/d, Part C, NC GT1b, 150 mg/d Compound 2 QD, read-out: T1/2 Day 1 (converted)", "value": 37.2, "unit": "min"}, {"measurement": "Tmax", "setting": "[3]; 150 mg/d, Part C, NC GT1b, 150 mg/d Compound 2 QD, read-out: Tmax Day 1", "value": 30, "unit": "min"}, {"measurement": "Cmax", "setting": "[3]; 150 mg/d, steady state, Part C, NC GT1b, 150 mg/d Compound 2 QD, read-out: Cmax SS", "value": "462 ± 409", "unit": "ng/mL"}, {"measurement": "half-life", "setting": "[3]; 150 mg/d, steady state, Part C, NC GT1b, 150 mg/d Compound 2 QD, read-out: T1/2 SS (converted)", "value": 38.4, "unit": "min"}, {"measurement": "Tmax", "setting": "[3]; 150 mg/d, steady state, Part C, NC GT1b, 150 mg/d Compound 2 QD, read-out: Tmax SS", "value": 60, "unit": "min"}, {"measurement": "Cmax", "setting": "[3]; 300 mg/d, Part C, NC GT1b, 300 mg/d Compound 2 QD, read-out: Cmax Day 1", "value": "2280 ± 893", "unit": "ng/mL"}, {"measurement": "half-life", "setting": "[3]; 300 mg/d, Part C, NC GT1b, 300 mg/d Compound 2 QD, read-out: T1/2 Day 1 (converted)", "value": 48, "unit": "min"}, {"measurement": "Tmax", "setting": "[3]; 300 mg/d, Part C, NC GT1b, 300 mg/d Compound 2 QD, read-out: Tmax Day 1", "value": 30, "unit": "min"}, {"measurement": "Cmax", "setting": "[3]; 300 mg/d, steady state, Part C, NC GT1b, 300 mg/d Compound 2 QD, read-out: Cmax SS", "value": "1830 ± 1310", "unit": "ng/mL"}, {"measurement": "half-life", "setting": "[3]; 300 mg/d, steady state, Part C, NC GT1b, 300 mg/d Compound 2 QD, read-out: T1/2 SS (converted)", "value": 43.8, "unit": "min"}, {"measurement": "Tmax", "setting": "[3]; 300 mg/d, steady state, Part C, NC GT1b, 300 mg/d Compound 2 QD, read-out: Tmax SS", "value": 30, "unit": "min"}, {"measurement": "Cmax", "setting": "[3]; 600 mg/d, Part C, NC GT1b, 600 mg/d Compound 2 QD, read-out: Cmax Day 1", "value": "4210 ± 2300", "unit": "ng/mL"}, {"measurement": "half-life", "setting": "[3]; 600 mg/d, Part C, NC GT1b, 600 mg/d Compound 2 QD, read-out: T1/2 Day 1 (converted)", "value": 51.6, "unit": "min"}, {"measurement": "Tmax", "setting": "[3]; 600 mg/d, Part C, NC GT1b, 600 mg/d Compound 2 QD, read-out: Tmax Day 1", "value": 30, "unit": "min"}, {"measurement": "Cmax", "setting": "[3]; 600 mg/d, Part D, NC GT3, 600 mg/d Compound 2 QD, read-out: Cmax Day 1", "value": "3970 ± 1940", "unit": "ng/mL"}, {"measurement": "half-life", "setting": "[3]; 600 mg/d, Part D, NC GT3, 600 mg/d Compound 2 QD, read-out: T1/2 Day 1 (converted)", "value": 43.8, "unit": "min"}, {"measurement": "Tmax", "setting": "[3]; 600 mg/d, Part D, NC GT3, 600 mg/d Compound 2 QD, read-out: Tmax Day 1", "value": 30, "unit": "min"}, {"measurement": "Cmax", "setting": "[3]; 600 mg/d, Part E, Child-Pugh A cirrhotic, 600 mg/d Compound 2 QD, read-out: Cmax Day 1", "value": "3410 ± 2180", "unit": "ng/mL"}, {"measurement": "half-life", "setting": "[3]; 600 mg/d, Part E, Child-Pugh A cirrhotic, 600 mg/d Compound 2 QD, read-out: T1/2 Day 1 (converted)", "value": 51.6, "unit": "min"}, {"measurement": "Tmax", "setting": "[3]; 600 mg/d, Part E, Child-Pugh A cirrhotic, 600 mg/d Compound 2 QD, read-out: Tmax Day 1", "value": 30, "unit": "min"}, {"measurement": "Cmax", "setting": "[3]; 600 mg/d, steady state, Part C, NC GT1b, 600 mg/d Compound 2 QD, read-out: Cmax SS", "value": "3600 ± 1740", "unit": "ng/mL"}, {"measurement": "half-life", "setting": "[3]; 600 mg/d, steady state, Part C, NC GT1b, 600 mg/d Compound 2 QD, read-out: T1/2 SS (converted)", "value": 51, "unit": "min"}, {"measurement": "Tmax", "setting": "[3]; 600 mg/d, steady state, Part C, NC GT1b, 600 mg/d Compound 2 QD, read-out: Tmax SS", "value": 30, "unit": "min"}, {"measurement": "Cmax", "setting": "[3]; 600 mg/d, steady state, Part D, NC GT3, 600 mg/d Compound 2 QD, read-out: Cmax SS", "value": "4140 ± 2280", "unit": "ng/mL"}, {"measurement": "half-life", "setting": "[3]; 600 mg/d, steady state, Part D, NC GT3, 600 mg/d Compound 2 QD, read-out: T1/2 SS (converted)", "value": 49.8, "unit": "min"}, {"measurement": "Tmax", "setting": "[3]; 600 mg/d, steady state, Part D, NC GT3, 600 mg/d Compound 2 QD, read-out: Tmax SS", "value": 30, "unit": "min"}, {"measurement": "Cmax", "setting": "[3]; 600 mg/d, steady state, Part E, Child-Pugh A cirrhotic, 600 mg/d Compound 2 QD, read-out: Cmax SS", "value": "3190 ± 2080", "unit": "ng/mL"}, {"measurement": "half-life", "setting": "[3]; 600 mg/d, steady state, Part E, Child-Pugh A cirrhotic, 600 mg/d Compound 2 QD, read-out: T1/2 SS (converted)", "value": 48.6, "unit": "min"}, {"measurement": "Tmax", "setting": "[3]; 600 mg/d, steady state, Part E, Child-Pugh A cirrhotic, 600 mg/d Compound 2 QD, read-out: Tmax SS", "value": 30, "unit": "min"}, {"measurement": "AUC SS (AUCinf for Compound 1)", "setting": "[3]; steady state, Part C, NC GT1b, 150 mg/d Compound 2 QD", "value": "475 ± 301", "unit": "ng/mLxh"}, {"measurement": "AUC SS (AUCinf for Compound 1)", "setting": "[3]; steady state, Part C, NC GT1b, 300 mg/d Compound 2 QD", "value": "1510 ± 976", "unit": "ng/mLxh"}, {"measurement": "AUC SS (AUCinf for Compound 1)", "setting": "[3]; steady state, Part C, NC GT1b, 600 mg/d Compound 2 QD", "value": "4036 ± 2093", "unit": "ng/mLxh"}, {"measurement": "AUC SS (AUCinf for Compound 1)", "setting": "[3]; steady state, Part D, NC GT3, 600 mg/d Compound 2 QD", "value": "3754 ± 2275", "unit": "ng/mLxh"}, {"measurement": "AUC SS (AUCinf for Compound 1)", "setting": "[3]; steady state, Part E, Child-Pugh A cirrhotic, 600 mg/d Compound 2 QD", "value": "3527 ± 1605", "unit": "ng/mLxh"}]}]}
